For seven molecules, EC50 results are on record in ChEMBL document CHEMBL5244248, “A novel long-acting oxyntomodulin analogue eliminates diabetes and obesity in mice” (Eur J Med Chem, 2020).

Numbered stars: 1 amine (or outer) side, 2 acyl side, 3 side chain; on linkers, the order of the positions; unused ones are H or OH. Square brackets hold non-standard residues; d marks the D form. Peptide text beside a SMILES is read from it. X1 = CC(C)(CN([C@@H](CCC(N)=O)C(=O)[*:2])[*:1])NC(=O)[C@@H](N)Cc1c[nH]cn1; Aib = CC(C)(N)C(=O)O

Test [1] has as its target Glucagon receptor (Mus musculus, UniProt Q61606). Nature of the test: Agonist activity at mouse GCGR expressed in CHO cells assessed as increase in cAMP accumulation. The test is classed as cell-based. (In general: cAMP levels reflect the balance of adenylyl cyclase and phosphodiesterase activity.)
The target of test [2] is T1, Glucagon-like peptide 1 receptor (Mus musculus, UniProt O35659).
T1 sequence (O35659 whole entry): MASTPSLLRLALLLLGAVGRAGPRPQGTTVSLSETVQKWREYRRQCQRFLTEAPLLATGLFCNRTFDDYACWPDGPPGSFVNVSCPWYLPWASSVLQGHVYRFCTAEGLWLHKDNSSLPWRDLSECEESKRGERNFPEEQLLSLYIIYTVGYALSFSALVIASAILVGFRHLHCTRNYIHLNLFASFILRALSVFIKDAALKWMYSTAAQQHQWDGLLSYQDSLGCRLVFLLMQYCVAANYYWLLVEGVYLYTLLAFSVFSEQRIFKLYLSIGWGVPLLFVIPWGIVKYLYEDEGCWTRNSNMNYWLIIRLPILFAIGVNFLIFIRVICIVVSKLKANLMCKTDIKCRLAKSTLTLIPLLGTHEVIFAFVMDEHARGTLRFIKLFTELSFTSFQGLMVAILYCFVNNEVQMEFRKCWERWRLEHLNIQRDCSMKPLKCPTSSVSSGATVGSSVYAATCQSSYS
The test is described as follows: Agonist activity at mouse GLP-1R expressed in CHO cells assessed as increase in cAMP accumulation. The test is classed as cell-based.

Glucagon receptor, sequence (Q61606 whole entry): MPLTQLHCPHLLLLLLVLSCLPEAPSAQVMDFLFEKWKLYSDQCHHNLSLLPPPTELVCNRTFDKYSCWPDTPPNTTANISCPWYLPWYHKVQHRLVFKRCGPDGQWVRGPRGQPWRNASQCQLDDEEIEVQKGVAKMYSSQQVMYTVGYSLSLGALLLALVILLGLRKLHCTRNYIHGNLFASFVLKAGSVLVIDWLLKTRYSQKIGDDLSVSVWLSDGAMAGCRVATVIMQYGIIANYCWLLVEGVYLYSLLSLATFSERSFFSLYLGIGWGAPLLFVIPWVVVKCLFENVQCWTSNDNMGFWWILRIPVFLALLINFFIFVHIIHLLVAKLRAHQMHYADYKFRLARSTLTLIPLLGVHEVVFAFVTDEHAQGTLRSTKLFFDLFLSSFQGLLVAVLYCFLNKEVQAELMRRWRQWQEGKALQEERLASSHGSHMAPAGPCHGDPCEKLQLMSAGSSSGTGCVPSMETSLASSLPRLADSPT

For orientation: EC50 means the concentration at which the effect is half-maximal. For the molecule `CSCC[C@H](NC(=O)[C@H](CC(C)C)NC(=O)[C@H](Cc1c[nH]c2ccccc12)NC(=O)[C@H](CS)NC(=O)[C@@H](NC(=O)[C@H](Cc1ccccc1)NC(=O)[C@H](CCC(=O)O)NC(=O)[C@H](CCCCN)NC(=O)[C@H](C)NC(=O)[C@H](CCCNC(=N)N)NC(=O)[C@H](CCCCN)NC(=O)[C@H](CCC(=O)O)NC(=O)[C@H](CC(=O)O)NC(=O)[C@H](CC(C)C)NC(=O)[C@H](Cc1ccc(O)cc1)NC(=O)[C@H](CCCCN)NC(=O)[C@H](CO)NC(=O)[C@H](Cc1ccc(O)cc1)NC(=O)[C@H](CC(=O)O)NC(=O)[C@H](CO)NC(=O)[C@@H](NC(=O)[C@H](Cc1ccccc1)NC(=O)[C@@H](NC(=O)CNC(=O)[C@H](CCC(N)=O)NCC(C)(C)NC(=O)[C@@H](N)Cc1c[nH]cn1)[C@@H](C)O)[C@@H](C)O)C(C)C)C(=O)N[C@@H](CC(N)=O)C(=O)N[C@H](C(=O)NCC(=O)N1CCC[C@H]1C(=O)N[C@@H](CO)C(=O)N[C@@H](CO)C(=O)NCC(=O)N[C@@H](C)C(=O)N1CCC[C@H]1C(=O)N[C@@H](CO)C(N)=O)[C@@H](C)O` (H-[X1]GTFTSDYSKYLDEKRAKEFVCWLMNTGPSSGAPS-NH2), the 50% effective concentration (EC50) in test [1] is 680 pM; in test [2], 450 pM.

As to `CC[C@H](C)[C@H](NC(=O)[C@H](CC(N)=O)NC(=O)[C@H](CC(N)=O)NC(=O)[C@H](CCCNC(=N)N)NC(=O)[C@H](CC(N)=O)NC(=O)[C@H](CCCNC(=N)N)NC(=O)[C@H](CCCCN)NC(=O)[C@@H](NC(=O)[C@H](CC(N)=O)NC(=O)[C@H](CCSC)NC(=O)[C@H](CC(C)C)NC(=O)[C@H](Cc1c[nH]c2ccccc12)NC(=O)[C@H](CCC(N)=O)NC(=O)[C@@H](NC(=O)[C@H](Cc1ccccc1)NC(=O)[C@H](CC(=O)O)NC(=O)[C@H](CCC(N)=O)NC(=O)[C@H](C)NC(=O)[C@H](CCCNC(=N)N)NC(=O)[C@H](CCCNC(=N)N)NC(=O)[C@H](CCC(=O)O)NC(=O)[C@H](CC(=O)O)NC(=O)[C@H](CC(C)C)NC(=O)[C@H](Cc1ccc(O)cc1)NC(=O)[C@H](CCCCN)NC(=O)[C@H](CO)NC(=O)[C@H](Cc1ccc(O)cc1)NC(=O)[C@H](CC(=O)O)NC(=O)[C@H](CO)NC(=O)[C@@H](NC(=O)[C@H](Cc1ccccc1)NC(=O)[C@@H](NC(=O)CNC(=O)[C@H](CCC(N)=O)NC(=O)C(C)(C)NC(=O)[C@@H](N)Cc1c[nH]cn1)[C@@H](C)O)[C@@H](C)O)C(C)C)[C@@H](C)O)C(=O)N[C@@H](C)C(N)=O` (H-H[Aib]QGTFTSDYSKYLDERRAQDFVQWLMNTKRNRNNIA-NH2), the EC50 in test [1] came to 6140 pM; in test [2], 3470 pM.

With `CSCC[C@H](NC(=O)[C@H](CC(C)C)NC(=O)[C@H](Cc1c[nH]c2ccccc12)NC(=O)[C@H](CCC(N)=O)NC(=O)[C@@H](NC(=O)[C@H](Cc1ccccc1)NC(=O)[C@H](CCC(=O)O)NC(=O)[C@H](CCCCN)NC(=O)[C@H](C)NC(=O)[C@H](CCCNC(=N)N)NC(=O)[C@H](CCCCN)NC(=O)[C@H](CCC(=O)O)NC(=O)[C@H](CC(=O)O)NC(=O)[C@H](CC(C)C)NC(=O)[C@H](Cc1ccc(O)cc1)NC(=O)[C@H](CCCCN)NC(=O)[C@H](CO)NC(=O)[C@H](Cc1ccc(O)cc1)NC(=O)[C@H](CC(=O)O)NC(=O)[C@H](CO)NC(=O)[C@@H](NC(=O)[C@H](Cc1ccccc1)NC(=O)[C@@H](NC(=O)CNC(=O)[C@H](CCC(N)=O)NC(=O)C(C)(C)NC(=O)[C@@H](N)Cc1c[nH]cn1)[C@@H](C)O)[C@@H](C)O)C(C)C)C(=O)N[C@@H](CC(N)=O)C(=O)N[C@H](C(=O)NCC(=O)N1CCC[C@H]1C(=O)N[C@@H](CO)C(=O)N[C@@H](CO)C(=O)NCC(=O)N[C@@H](C)C(=O)N1CCC[C@H]1C(=O)N[C@@H](CO)C(=O)N[C@@H](CS)C(N)=O)[C@@H](C)O`, the half-maximal effective concentration (EC50) in test [1] worked out at 590 pM; in test [2], 400 pM.

On to `CSCC[C@H](NC(=O)[C@H](CC(C)C)NC(=O)[C@H](Cc1c[nH]c2ccccc12)NC(=O)[C@H](CCC(N)=O)NC(=O)[C@@H](NC(=O)[C@H](Cc1ccccc1)NC(=O)[C@H](CCC(=O)O)NC(=O)[C@H](CCCCN)NC(=O)[C@H](C)NC(=O)[C@H](CCCNC(=N)N)NC(=O)[C@H](CCCCN)NC(=O)[C@H](CCC(=O)O)NC(=O)[C@H](CC(=O)O)NC(=O)[C@H](CC(C)C)NC(=O)[C@H](Cc1ccc(O)cc1)NC(=O)[C@H](CCCCN)NC(=O)[C@H](CO)NC(=O)[C@H](Cc1ccc(O)cc1)NC(=O)[C@H](CC(=O)O)NC(=O)[C@H](CO)NC(=O)[C@@H](NC(=O)[C@H](Cc1ccccc1)NC(=O)[C@@H](NC(=O)CNC(=O)[C@H](CCC(N)=O)NC(=O)C(C)(C)NC(=O)[C@@H](N)Cc1c[nH]cn1)[C@@H](C)O)[C@@H](C)O)C(C)C)C(=O)N[C@@H](CC(N)=O)C(=O)N[C@H](C(=O)NCC(=O)N1CCC[C@H]1C(=O)N[C@@H](CO)C(=O)N[C@@H](CO)C(=O)NCC(=O)N[C@@H](C)C(=O)N1CCC[C@H]1C(=O)N[C@@H](CO)C(N)=O)[C@@H](C)O`, for which the concentration giving a half-maximal response (EC50) turned out to be 530 pM in test [1] and 360 pM in test [2].

As for `CC[C@H](C)[C@H](NC(=O)[C@H](CC(N)=O)NC(=O)[C@H](CC(N)=O)NC(=O)[C@H](CCCNC(=N)N)NC(=O)[C@H](CC(N)=O)NC(=O)[C@H](CCCNC(=N)N)NC(=O)[C@H](CCCCN)NC(=O)[C@@H](NC(=O)[C@H](CC(N)=O)NC(=O)[C@H](CCSC)NC(=O)[C@H](CC(C)C)NC(=O)[C@H](Cc1c[nH]c2ccccc12)NC(=O)[C@H](CCC(N)=O)NC(=O)[C@@H](NC(=O)[C@H](Cc1ccccc1)NC(=O)[C@H](CC(=O)O)NC(=O)[C@H](CCCCN)NC(=O)[C@H](C)NC(=O)[C@H](CCCNC(=N)N)NC(=O)[C@H](CCCNC(=N)N)NC(=O)[C@H](CCC(=O)O)NC(=O)[C@H](CC(=O)O)NC(=O)[C@H](CC(C)C)NC(=O)[C@H](Cc1ccc(O)cc1)NC(=O)[C@H](CCCCN)NC(=O)[C@H](CO)NC(=O)[C@H](Cc1ccc(O)cc1)NC(=O)[C@H](CC(=O)O)NC(=O)[C@H](CO)NC(=O)[C@@H](NC(=O)[C@H](Cc1ccccc1)NC(=O)[C@@H](NC(=O)CNC(=O)[C@H](CCC(N)=O)NC(=O)C(C)(C)NC(=O)[C@@H](N)Cc1c[nH]cn1)[C@@H](C)O)[C@@H](C)O)C(C)C)[C@@H](C)O)C(=O)N[C@@H](C)C(N)=O` (H-H[Aib]QGTFTSDYSKYLDERRAKDFVQWLMNTKRNRNNIA-NH2), the EC50 amounted to 3410 pM in test [1] and 1590 pM in test [2].

As to `CC[C@H](C)[C@H](NC(=O)[C@H](CC(N)=O)NC(=O)[C@H](CC(N)=O)NC(=O)[C@H](CCCNC(=N)N)NC(=O)[C@H](CC(N)=O)NC(=O)[C@H](CCCNC(=N)N)NC(=O)[C@H](CCCCN)NC(=O)[C@@H](NC(=O)[C@H](CC(N)=O)NC(=O)[C@H](CCSC)NC(=O)[C@H](CC(C)C)NC(=O)[C@H](Cc1c[nH]c2ccccc12)NC(=O)[C@H](CCC(N)=O)NC(=O)[C@@H](NC(=O)[C@H](Cc1ccccc1)NC(=O)[C@H](CCC(=O)O)NC(=O)[C@H](CCCCN)NC(=O)[C@H](C)NC(=O)[C@H](CCCNC(=N)N)NC(=O)[C@H](CCCCN)NC(=O)[C@H](CCC(=O)O)NC(=O)[C@H](CC(=O)O)NC(=O)[C@H](CC(C)C)NC(=O)[C@H](Cc1ccc(O)cc1)NC(=O)[C@H](CCCCN)NC(=O)[C@H](CO)NC(=O)[C@H](Cc1ccc(O)cc1)NC(=O)[C@H](CC(=O)O)NC(=O)[C@H](CCC(=O)O)NC(=O)[C@@H](NC(=O)[C@H](Cc1ccccc1)NC(=O)[C@@H](NC(=O)CNC(=O)[C@H](CCC(N)=O)NC(=O)C(C)(C)NC(=O)[C@@H](N)Cc1c[nH]cn1)[C@@H](C)O)[C@@H](C)O)C(C)C)[C@@H](C)O)C(=O)N[C@@H](C)C(N)=O` (H-H[Aib]QGTFTEDYSKYLDEKRAKEFVQWLMNTKRNRNNIA-NH2), the results for the half-maximal effective concentration (EC50) in test [1] and in test [2] were 9030 pM and 17600 pM, respectively.

As to `CC[C@H](C)[C@H](NC(=O)[C@H](CC(N)=O)NC(=O)[C@H](CC(N)=O)NC(=O)[C@H](CCCNC(=N)N)NC(=O)[C@H](CC(N)=O)NC(=O)[C@H](CCCNC(=N)N)NC(=O)[C@H](CCCCN)NC(=O)[C@@H](NC(=O)[C@H](CC(N)=O)NC(=O)[C@H](CCSC)NC(=O)[C@H](CC(C)C)NC(=O)[C@H](Cc1c[nH]c2ccccc12)NC(=O)[C@H](CCC(N)=O)NC(=O)[C@@H](NC(=O)[C@H](Cc1ccccc1)NC(=O)[C@H](CCC(=O)O)NC(=O)[C@H](CCCCN)NC(=O)[C@H](C)NC(=O)[C@H](CCCNC(=N)N)NC(=O)[C@H](CCCCN)NC(=O)[C@H](CCC(=O)O)NC(=O)[C@H](CC(=O)O)NC(=O)[C@H](CC(C)C)NC(=O)[C@H](Cc1ccc(O)cc1)NC(=O)[C@H](CCCCN)NC(=O)[C@H](CO)NC(=O)[C@H](Cc1ccc(O)cc1)NC(=O)[C@H](CC(=O)O)NC(=O)[C@H](CO)NC(=O)[C@@H](NC(=O)[C@H](Cc1ccccc1)NC(=O)[C@@H](NC(=O)CNC(=O)[C@H](CCC(N)=O)NC(=O)C(C)(C)NC(=O)[C@@H](N)Cc1c[nH]cn1)[C@@H](C)O)[C@@H](C)O)C(C)C)[C@@H](C)O)C(=O)N[C@@H](C)C(N)=O`, the EC50 turned out to be 940 pM in test [1] and 610 pM in test [2].
